Here are results for six molecules from patent US20250084035A1, “POLYMORPHIC FORM OF MEISOINDIGO AND MODIFIED FORMULATION OF MEISOINDIGO” (STATIA BIOPHARMA INC., priority 2018, published 2025).

Data set [1] is described as follows: Solubility in solvents (descriptive). It is filed as physicochemical.
For another data set, the system named is ulcerative colitis. In words: Clinical trial in ulcerative colitis. Particulars: recent clinical trial. The data set is classed as in vivo, humans.
The next data set concerns leukemia cells. Particulars: cited from earlier work.
The nature of data set [2]: Particle size and distribution, Malvern Mastersizer 2000. The following applies: for Particle size d10 / Particle size d50 / Particle size d90: Crystal Form I, Malvern Mastersizer 2000; for Particle Size Distribution Ratio: calculated as (d90-d10)/d50. It is filed as physicochemical. On the procedure: Crystal Form I was analyzed for its particle size and distribution. Five batches were tested using a Malvern Mastersizer 2000 (MIIA14730, Malvern, UK).

SMILES strings stand for the structures.

With `CN1C(=O)/C(=C2/C(=O)Nc3ccccc32)c2ccccc21` [N-methylisoindigo], the Solubility entry in data set [1] (in acetone) is reported as “sparingly soluble”; in data set [1] (in chloroform), “sparingly soluble”; in data set [1] (in ethanol), “sparingly soluble”; in data set [1] (in water) it was “slightly soluble”. Also, the “Efficacy against ulcerative colitis” value in the data set on ulcerative colitis is listed as “very effective”. Besides, in the data set with ulcerative colitis, the Side effects result was “no significant side effects”. Besides, the Cell cycle effect result in the data set on leukemia cells (leukemia cells) is given as “arrests leukemia cells at G phase”. For the same molecule, the “Expression of oncogene c-myb” value with leukemia cells (leukemia cells) is “inhibits”. Besides, the Cell growth entry with leukemia cells (low concentrations, without a decrease in cell viability) is recorded as “completely inhibited”.
As to `CN1C(=O)/C(=C2/C(=O)Nc3ccccc32)c2ccccc21` [NAT-0601, N-methylisoindigo], in data set [2], the “Particle size d10” value is on record as 2.506 μm, the “Particle size d50” value is reported as 12.464 μm, the “Particle size d90” value is 25.635 μm and the “Particle Size Distribution Ratio” value was 1.86.
Regarding `CN1C(=O)/C(=C2/C(=O)Nc3ccccc32)c2ccccc21` [NAT-0801, N-methylisoindigo], in data set [2], the “Particle size d10” value is 3.249 μm, the “Particle size d50” value was found to be 12.268 μm, the “Particle size d90” value is recorded as 23.99 μm and the “Particle Size Distribution Ratio” value is 1.69.
Turning to `CN1C(=O)/C(=C2/C(=O)Nc3ccccc32)c2ccccc21` [NAT-1201, N-methylisoindigo], in data set [2], the “Particle size d10” value was found to be 3.599 μm, the “Particle size d50” value worked out at 13.301 μm, the “Particle size d90” value is on record as 26.897 μm and the “Particle Size Distribution Ratio” value was 1.75.
Consider `CN1C(=O)/C(=C2/C(=O)Nc3ccccc32)c2ccccc21` [NAT-1202, N-methylisoindigo], for which, in data set [2], the “Particle size d10” value was found to be 5.035 μm, the “Particle size d50” value was found to be 15.603 μm, the “Particle size d90” value is on record as 30.339 μm and the “Particle Size Distribution Ratio” value is 1.62.
For `CN1C(=O)/C(=C2/C(=O)Nc3ccccc32)c2ccccc21` [NAT-1203, N-methylisoindigo], in data set [2], the “Particle size d10” value is given as 5.295 μm, the “Particle size d50” value was 15.674 μm, the “Particle size d90” value was found to be 30.015 μm and the “Particle Size Distribution Ratio” value is 1.58.
